{"source": "patent US5273991A", "about": "“Imidazole-containing compositions and methods of use thereof analogs of distamycin” (Research Corporation Technologies, Inc., priority 1992, dated 1993)", "key": {"poly(dG.dC)": {"system": "poly(dG.dC)", "assay": "circular dichroism (CD) titration, poly(dG.dC)", "format": "binding", "protocol": "(§1) The DNA binding properties of the present compounds were assessed by circular dichroism (CD) titration experiments. Methods for CD titration can be found, for example, in Zimmer et al. (1986) Prog. Biophys. Molec. Biol 47, 31. The conformation of DNA can be readily determined by CD experiments, and for B-DNA, characteristic positive and negative Cotton effects are observed at 260 and 245 nm, respectively.\n(§2) The interaction of Compounds 6-10 to a number of DNAs [calf thymus, poly(dA dT) and poly(dG dC)] were analyzed by CD titration studies. All the CD titration experiments were performed using identical procedures, concentrations of DNA, and increments of drug:DNA ratios (or `r`, i.e. moles of drug to moles of DNA base pairs). Therefore, the differences observed in the CD spectra for the titration of each of the compounds to the polydeoxynucleotides may be directly compared to reflect their DNA binding properties.\n(§3) All experiments were performed with a continuous flow of nitrogen purging the polarimeter. A 1 mm path length jacketed cell was used and all experiments were done at room temperature. Initially, DNA [0.02 μ moles (base pairs), 130 μL] was placed in the cell and the spectrum of the DNA alone was collected. Aliquots of drug were added and the spectra collected. The drug solutions were 1 mM and amounts of the drug added correspond to a drug to base pair ratio of 0.05, 0.10, 0.15, 0.20, 0.25, 0.30, 0.40, 0.50, 0.60, 0.80, 1.00. The scan parameters were set and standard for all experiments. The spectra were collected from 400 nm to 200 nm. The sensitivity was set at 1 mdeg and the scan speed was set at 20 nm per minute. Three scans were accumulated and automatically averaged by the computer. The λmax and ellipticity (mdeg) for each spectrum were collected from the raw scans and the final plots were smoothed by the noise reduction program on the computer. […] The induced CD band is presumably due to the uv absorption π to π^* transition of the drug in the drug:DNA complex. […] Therefore interaction of these drugs with DNA causes only minor conformational changes in the double helix."}, "[1]": {"system": "DNAs [calf thymus, poly(dA dT) and poly(dG dC)]", "assay": "circular dichroism (CD) titration, DNAs together", "format": "binding", "conditions": "for drug-induced CD bands, wavelength: drugs alone do not exhibit any CD spectra", "protocol": "as §1, §2, §3"}, "HL-60 (TB)": {"system": "HL-60 (TB)", "assay": "NCI cytotoxicity screen (SRB)", "format": "cell-based, human"}, "poly(dGdC)": {"target": "poly(dGdC)", "assay": "ethidium displacement assay, poly(dGdC)", "format": "binding", "conditions": "poly(dGdC); ± 0.02 × 10^5 M^-1; pH 7.4", "text": "The ethidium displacement assay is based on the fact that ethidium binding to DNA causes a large (approximately 25 fold) florescence enhancement as a result of the hydrophobic environment surrounding the ethidium molecule. Displacement of ethidium results in decreased fluorescence, and thus binding constants of drugs to DNA can be estimated and compared by measuring the loss of fluorescence as a function of added drug. The drug concentration which produces 50% inhibition of florescence is approximately inversely proportional to the apparent binding constant.\nThe relative DNA binding constants (Kapp) of distamycin and Compounds 6-10 to calf thymus DNA, T4 coliphage DNA, poly(dAdT) and poly(dGdC) were determined using the ethidium displacement assay (Morgan et al., 1979). The Kapp of ethidium bromide (Debart et al., 1989) is included for comparison. 25 μL of a 2A260 DNA solution was added to 2 mL of ethidium bromide buffer (250 μL of 1.3 mM ethidium bromidestock, 314.9 mg Tris-HCl, 60.8 mg Tris base and 930/mg of Na2 EDTA.2H2 O in 250 ml H2 O) pH 7.4 and the maximum fluorescence was measured (excitation wavelength=546 nm, emission wavelength=600 nm) at ambient temperature.\nDNA solutions of 2A260 were prepared as follows: T4 coliphage DNA: 10 units of DNA were dissolved in 1 mL of 10 mM sodium phosphate (pH 7.1) and 0.25 mM EDTA buffer to give a 10A260 solution. 0.3 mL of the stock solution were diluted to 1.5 mL with 10 mM sodium phosphate (pH 7.1) and 0.25 mM EDTA buffer to give a 2A260 solution. Calf thymus DNA: 100 units of DNA were dissolved in 5 mL of 10 mM sodium phosphate (pH 7.1) and 0.25 mM EDTA buffer to give a 20A260 solution. 1.5 mL of the stock solution were diluted to 15 mL with 10 mM sodium phosphate (pH 7.1) and 0.25 mM EDTA buffer to give a 2A260 solution. Poly(dA-dT) and Poly(dG-dC) DNA: 100 units of DNA were dissolved in 10 mL of 10 mM sodium phosphate pH 7.1) and 0.25 mM EDTA buffer to give a 10A260 solution. 3 mL of the stock solution were diluted to 15 mL with 10 mM sodium phosphate (pH 7.1) and 0.25 mM EDTA buffer to give a 2A260 solution.\nAliquots of 10 mM stock drug solution (1 mg of drug to be tested was dissolved with 1 mole equivalent of 0.1M HCl, and then diluted with appropriate volume of distilled water to make a 10 mM solution) were then added to the fluorescing solution and the florescence measured after each addition until a 50% reduction of fluorescence occurred. If the 10 mM stock solution lowered the % fluorescence too quickly, the stock solution was further diluted to 1 mM prior to titration. The apparent binding constant was then calculated from this equation: KEtBr [EtBr]=Kapp [drug], where [drug]=the concentration of drug at a 50% reduction of fluorescence and KEtBr [1×10^7 M^-1 for calf thymus and coliphage T4 DNA^18, 9.5×10^6 M^-1 for poly(dA.dT)^30, and 9.9×10^6 M^-1 for poly(dG.dC)^30 ] and [EtBr] were known. The concentration of ethidium bromide was 1.3 μM. The Kapp values are shown in Table I. In a separate experiment, the Kapp of Compound 5 for calf thymus DNA and poly[dGdC] were determined to be 0.3×10^5 M^-1 and 2.6×10^5 M^-1, respectively. The error in these measurements is ±[…]."}}, "data": [{"smiles": "CN(C)CCNC(=O)c1nc(NC(=O)c2nc(NC(=O)c3ccc(N(CCCl)CCCl)cc3)cn2C)cn1C", "note": "[Compound 6, N-(N',N'-dimethylaminoethyl)-1-methyl-4-{4-[4,4-bis(2-chloroethyl)aminobenzamido]-1-methylimidazole-2-carboxamido}imidazole-2-carboxamide]", "values": [{"measurement": "induced negative CD band, ellipticity", "setting": "poly(dG.dC); 330 nm, r'=0.2", "result": 0.7, "unit": "mdeg"}, {"measurement": "isobestic point", "setting": "poly(dG.dC); poly(dG.dC)", "result": 297, "unit": "nm"}, {"measurement": "drug-induced CD bands, wavelength", "setting": "[1]", "result": "290-340 nm"}, {"measurement": "IC50", "setting": "HL-60 (TB); 48 h, Leukemia HL-60 (TB)", "result": 7.84, "unit": "µM"}, {"measurement": "IC50", "setting": "HL-60 (TB); HL-60 (TB), subsequent test date", "result": 7.93, "unit": "µM"}, {"measurement": "Association constant Kapp", "setting": "poly(dGdC)", "result": 455000, "unit": "M⁻¹"}]}, {"smiles": "CN(C)CCNC(=O)c1nc(NC(=O)c2nc(NC(=O)c3nc(NC(=O)c4ccc(N(CCCl)CCCl)cc4)cn3C)cn2C)cn1C", "note": "[Compound 7, N-(N',N'-dimethylaminoethyl)-1-methyl-4-{1-methyl-4-[4-(4,4-bis-(2-chloroethyl)aminobenzamido)-1-methylimidazole-2-carboxamido]imidazole-2-carboxamido}imidazole-2-carboxamide]", "values": [{"measurement": "negative Cotton effect, ellipticity", "setting": "poly(dG.dC); 333 nm, r'=0.2", "result": 1, "unit": "mdeg"}, {"measurement": "isobestic point", "setting": "poly(dG.dC); poly(dG.dC)", "result": 283, "unit": "nm"}, {"measurement": "drug-induced CD bands, wavelength", "setting": "[1]", "result": "290-340 nm"}, {"measurement": "IC50", "setting": "HL-60 (TB); 48 h, Leukemia HL-60 (TB)", "result": 0.72, "unit": "µM"}, {"measurement": "Association constant Kapp", "setting": "poly(dGdC)", "result": 495000, "unit": "M⁻¹"}]}, {"smiles": "CN(C)CCNC(=O)c1nc(NC(=O)c2nc(NC(=O)c3nc(NCc4ccc(N(CCCl)CCCl)cc4)cn3C)cn2C)cn1C", "note": "[Compound 8, N-(N',N'-dimethylaminoethyl)-1-methyl-4-{1-methyl-4-[4-(4,4-bis-(2-chloroethyl)aminobenzylamino)-1-methylimidazole-2-carboxamido]imidazole-2-carboxamido}imidazole-2-carboxamide]", "values": [{"measurement": "new positive Cotton effect shoulder, wavelength", "setting": "poly(dG.dC); poly(dG.dC)", "result": 288, "unit": "nm"}, {"measurement": "Association constant Kapp", "setting": "poly(dGdC)", "result": 339000, "unit": "M⁻¹"}]}, {"smiles": "CN(C)CCNC(=O)c1nc(NC(=O)c2nc(NC(=O)CCCc3ccc(N(CCCl)CCCl)cc3)cn2C)cn1C", "note": "[Compound 9, N-(N',N'-dimethylaminoethyl)-1-methyl-4-{4-[4,4-bis(2-chloroethyl)aminophenyl-1-butanamido]-1-methylimidazole-2-carboxamido}imidazole-2-carboxamide]", "values": [{"measurement": "CD titration result in words", "setting": "[1]; three polydeoxyribonucleotides, r' up to 0.8", "result": "did not produce any notable changes in the CD spectra"}, {"measurement": "IC50", "setting": "HL-60 (TB); 48 h, Leukemia HL-60 (TB)", "result": 43.8, "unit": "µM"}, {"measurement": "Association constant Kapp", "setting": "poly(dGdC)", "result": 76000, "unit": "M⁻¹"}]}, {"smiles": "CN(C)CCNC(=O)c1nc(NC(=O)c2nc(NC(=O)c3nc(NC(=O)CCCc4ccc(N(CCCl)CCCl)cc4)cn3C)cn2C)cn1C", "note": "[Compound 10, N-(N',N'-dimethylaminoethyl)-1-methyl-4-{1-methyl-4-[4-(4,4-bis(2-chloroethyl)aminophenyl-1-butanamido)-1-methylimidazole-2-carboxamido]imidazole-2-carboxamido}imidazole-2-carboxamide]", "values": [{"measurement": "negative Cotton effect band, ellipticity", "setting": "poly(dG.dC); 315 nm, equimolar titration", "result": -1.0, "unit": "mdeg"}, {"measurement": "binding preference from CD titration", "setting": "[1]; induced band for poly(dG.dC) vs poly(dA.dT)", "result": "binds more strongly to GC rich sequences of DNA"}, {"measurement": "IC50", "setting": "HL-60 (TB); 48 h, Leukemia HL-60 (TB)", "result": 7.89, "unit": "µM"}, {"measurement": "Association constant Kapp", "setting": "poly(dGdC)", "result": 16000, "unit": "M⁻¹"}]}]}
